Experimental data reported in PubChem BioAssay (NCI).
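The compound was tested at five concentrations on cells cultured in 96-well plates, with a 48-hour exposure period. GI50 = concentration required for 50% inhibition of growth. Definition used: TGI = concentration required for complete inhibition of growth.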

Key:
Experiment in all cases: growth of human tumour cells (NCI), 48 h
EKVX NSCLC = system: EKVX NSCLC
RPMI-8226 leukemia = system: RPMI-8226 leukemia
HT29 colon = system: HT29 colon
SN12C renal = system: SN12C renal
LOX IMVI melanoma = system: LOX IMVI melanoma
MCF7 breast = system: MCF7 breast
SR leukemia = system: SR leukemia
T-47D breast = system: T-47D breast
SF-295 CNS = system: SF-295 CNS
SK-OV-3 ovarian = system: SK-OV-3 ovarian
BT-549 breast = system: BT-549 breast
OVCAR-3 ovarian = system: OVCAR-3 ovarian
MALME-3M melanoma = system: MALME-3M melanoma
OVCAR-4 ovarian = system: OVCAR-4 ovarian
UACC-257 melanoma = system: UACC-257 melanoma
OVCAR-8 ovarian = system: OVCAR-8 ovarian
SNB-75 CNS = system: SNB-75 CNS
SK-MEL-2 melanoma = system: SK-MEL-2 melanoma

Row | Compound | TGI (EKVX NSCLC) | TGI (RPMI-8226 leukemia) | TGI (HT29 colon) | TGI (SN12C renal) | TGI (LOX IMVI melanoma) | TGI (MCF7 breast) | TGI (SR leukemia) | TGI (T-47D breast) | TGI (SF-295 CNS) | TGI (SK-OV-3 ovarian) | TGI (BT-549 breast) | TGI (OVCAR-3 ovarian) | TGI (MALME-3M melanoma) | TGI (OVCAR-4 ovarian) | TGI (UACC-257 melanoma) | TGI (OVCAR-8 ovarian) | TGI (SNB-75 CNS) | TGI (SK-MEL-2 melanoma) | GI50 (SR leukemia)
1 | COC(=O)/C=C\C(C#N)(C#N)N=Cc1cccc(OC)c1 | 23.8 µM | > 28 µM | 10.5 µM | 27.1 µM | > 50.8 µM | 38.9 µM | > 24.5 µM | 18.9 µM | 53.8 µM | 47.1 µM | 20.4 µM | 26.1 µM | 4.37 µM | 18.8 µM | 29.8 µM | 10.5 µM | 29.6 µM | 32.4 µM | –
2 | CC(Oc1ccccc1Cl)C(=O)NN1C(=O)CC(=O)N(c2ccccc2)C1=S (stereo unspecified) | > 100 µM | > 100 µM | > 100 µM | > 100 µM | > 100 µM | > 100 µM | > 100 µM | > 100 µM | > 100 µM | > 100 µM | > 100 µM | > 100 µM | > 100 µM | > 100 µM | > 100 µM | > 100 µM | > 100 µM | > 100 µM | –
3 | COC(=O)C1Cc2ccc(O)c(O)c2CN1 (stereo unspecified) | > 100 µM | 68 µM | 55.7 µM | 30 µM | 28.4 µM | 32 µM | 82.2 µM | > 100 µM | 20.4 µM | > 100 µM | 32.2 µM | > 100 µM | 98.7 µM | 39.3 µM | 29.2 µM | – | 34.4 µM | 31.2 µM | –
4 | COc1cc(CSc2ccc(O)cc2)cc(OC)c1OC | > 100 µM | 66.1 µM | > 100 µM | > 100 µM | > 100 µM | 66.6 µM | > 100 µM | 55.5 µM | 95 µM | > 100 µM | 48.3 µM | > 100 µM | > 100 µM | – | > 100 µM | > 100 µM | 86.2 µM | 67 µM | –
5 | Cc1nc(SCC(=O)Nc2ccc(Cl)cc2)c2sc(=S)n(-c3ccccc3)c2n1 | > 10 µM | > 10 µM | > 10 µM | > 10 µM | > 10 µM | > 10 µM | > 10 µM | > 10 µM | > 10 µM | > 10 µM | > 10 µM | > 10 µM | > 10 µM | > 10 µM | > 10 µM | > 10 µM | > 10 µM | > 10 µM | –
6 | COc1cc2c(c(OC)c1OC)C(=O)[C@@H]1[C@H]2N1C(=O)NCCCl | > 100 µM | > 100 µM | > 100 µM | > 100 µM | > 100 µM | > 100 µM | > 100 µM | > 100 µM | > 100 µM | > 100 µM | > 100 µM | > 100 µM | > 100 µM | > 100 µM | > 100 µM | > 100 µM | > 100 µM | > 100 µM | –
7 | CCOC(=O)NN(C(=O)OCC)C(C(=O)C1=CCCCC1)N(NC(=O)OCC)C(=O)OCC | > 100 µM | > 100 µM | > 100 µM | > 100 µM | > 100 µM | > 100 µM | > 100 µM | > 100 µM | > 100 µM | > 100 µM | > 100 µM | > 100 µM | > 100 µM | > 100 µM | > 100 µM | > 100 µM | > 100 µM | > 100 µM | –
8 | NC(N)=NS(=O)(=O)c1ccc(N/N=C2/CCOC2=O)cc1 | > 100 µM | > 100 µM | > 100 µM | > 100 µM | > 100 µM | > 100 µM | > 100 µM | > 100 µM | > 100 µM | > 100 µM | > 100 µM | > 100 µM | > 100 µM | > 100 µM | > 100 µM | > 100 µM | 58.7 µM | > 100 µM | –
9 | COc1cccc(C23CCCC(C2)NCC3Br)c1OC (stereo unspecified) | > 100 µM | 45.7 µM | > 100 µM | > 100 µM | > 100 µM | 57.3 µM | 83.1 µM | > 100 µM | > 100 µM | > 100 µM | 92.3 µM | > 100 µM | > 100 µM | > 100 µM | > 100 µM | > 100 µM | > 100 µM | > 100 µM | –
10 | Cc1ccc(C(=O)Nc2ccc(CP(=O)(O)O)cc2)cc1NC(=O)c1cccc(N)c1 | > 100 µM | > 100 µM | > 100 µM | > 100 µM | > 100 µM | > 100 µM | > 100 µM | > 100 µM | > 100 µM | > 100 µM | > 100 µM | > 100 µM | > 100 µM | > 100 µM | > 100 µM | > 100 µM | > 100 µM | > 100 µM | –
11 | CCOC(=O)/C=C(\C(=O)OCC)n1ccc(=O)n(Cc2cnnn2CCCCOC(C)=O)c1=O | 24.8 µM | > 22.5 µM | 23.5 µM | 45.3 µM | 17.6 µM | 18.8 µM | 5.49 µM | 17.4 µM | > 59.8 µM | > 75.7 µM | 30.2 µM | 21.5 µM | 3.84 µM | 30.2 µM | 27.4 µM | 13.9 µM | 31.5 µM | 36.3 µM | 1.68 µM
12 | Oc1ccc([C@H]2c3c(O)cc(O)cc3C3c4c(cc(O)cc4[C@@H]2[C@H]2c4cc(O)cc5c4C(c4cc(O)cc(O)c4[C@@H]2c2ccc(O)cc2)[C@@H](c2ccc(O)cc2)O5)O[C@@H]3c2ccc(O)cc2)cc1 (stereo partly specified) | > 100 µM | > 100 µM | > 100 µM | > 100 µM | > 100 µM | > 100 µM | 50 µM | > 100 µM | > 100 µM | – | > 100 µM | > 100 µM | > 100 µM | 8.53 µM | > 100 µM | > 100 µM | > 100 µM | > 100 µM | –
13 | COC(=O)C1CCC(=S)N1C(=O)OCc1ccccc1 (stereo unspecified) | > 100 µM | > 100 µM | > 100 µM | – | – | > 100 µM | > 100 µM | > 100 µM | > 100 µM | > 100 µM | > 100 µM | > 100 µM | > 100 µM | > 100 µM | > 100 µM | > 100 µM | > 100 µM | > 100 µM | –
14 | CCOC(=O)C(NC(=O)c1ccccc1)(Nc1ccc(S(=O)(=O)Nc2ncccn2)cc1)C(F)(F)F (stereo unspecified) | > 100 µM | > 100 µM | > 100 µM | > 100 µM | > 100 µM | > 100 µM | > 100 µM | > 100 µM | > 100 µM | > 100 µM | > 100 µM | > 100 µM | > 100 µM | > 100 µM | > 100 µM | > 100 µM | > 100 µM | > 100 µM | –
15 | NNC(=O)CC(=O)Nc1cccc(Cl)c1 | > 100 µM | > 100 µM | > 100 µM | > 100 µM | > 100 µM | > 100 µM | > 100 µM | > 100 µM | > 100 µM | > 100 µM | > 100 µM | > 100 µM | > 100 µM | > 100 µM | > 100 µM | > 100 µM | > 100 µM | > 100 µM | –
16 | S=C(N/N=C(\c1ccccc1)c1ccccn1)NC1CCCCC1 | > 100 µM | > 100 µM | > 100 µM | > 100 µM | 23.6 µM | > 100 µM | > 100 µM | > 100 µM | > 80.1 µM | > 100 µM | > 100 µM | > 100 µM | > 100 µM | > 100 µM | > 100 µM | 3.44 µM | > 100 µM | > 100 µM | –
17 | CSC1(C)C(=O)Nc2c(OCc3ccccc3)cc([N+](=O)[O-])cc21 (stereo unspecified) | > 100 µM | > 100 µM | > 100 µM | 34.6 µM | > 100 µM | 44.1 µM | > 100 µM | > 100 µM | > 100 µM | > 100 µM | > 100 µM | > 100 µM | > 100 µM | > 100 µM | > 100 µM | 55.1 µM | 35.7 µM | > 100 µM | –
18 | COc1ccc([N+](=O)[O-])c2c(NCCCN(C)C)ccnc12 | 22.8 µM | 6.53 µM | > 32.4 µM | 34 µM | 31 µM | > 38.8 µM | 1.97 µM | 29 µM | 24.8 µM | 43.2 µM | 6.45 µM | 6.78 µM | 5.62 µM | 3.69 µM | 12 µM | > 48.5 µM | 15.8 µM | 4.48 µM | –
19 | CC(O)C1(CNc2cc(Cl)nc(N)n2)CCCCC1 (stereo unspecified) | > 100 µM | > 100 µM | > 100 µM | > 100 µM | > 100 µM | > 100 µM | > 100 µM | > 100 µM | > 100 µM | > 100 µM | > 100 µM | > 100 µM | > 100 µM | > 100 µM | > 100 µM | > 100 µM | > 100 µM | > 100 µM | –
20 | COc1cc(-c2nc3ccc(N4CCN(C)CC4)cc3[nH]2)c(OC)c2[nH]c(COC(C)=O)nc12 | > 100 µM | > 100 µM | > 100 µM | > 100 µM | 96.4 µM | > 100 µM | 73 µM | > 100 µM | > 100 µM | > 100 µM | > 100 µM | > 100 µM | 63.8 µM | > 100 µM | > 100 µM | > 100 µM | 82 µM | > 100 µM | –
